The target in this assay is Serine/threonine-protein kinase ATR (Homo sapiens, UniProt Q13535). The assay is described as follows: Assay of ATR Kinase Activity. Here is the method: The amount of phosphorylated protein was determined by time-resolved fluorescence in this assay. The amount of phosphorylated protein was detected by anti-p53-phospho-(serine 15)-K-specific antibody (Cisbio, art. No.: 61GSTDLA) and d2 labeled anti-GST antibody (Cisbio, art. No. 61P08KAE). […] The reagents used above were purchased from Sigma or Invitrogen, except for those whose manufacturers were mentioned.

As a reminder, the IC50 is the point on the concentration scale where inhibition reaches its midpoint.

Serine/threonine-protein kinase ATR, sequence (Q13535 whole entry): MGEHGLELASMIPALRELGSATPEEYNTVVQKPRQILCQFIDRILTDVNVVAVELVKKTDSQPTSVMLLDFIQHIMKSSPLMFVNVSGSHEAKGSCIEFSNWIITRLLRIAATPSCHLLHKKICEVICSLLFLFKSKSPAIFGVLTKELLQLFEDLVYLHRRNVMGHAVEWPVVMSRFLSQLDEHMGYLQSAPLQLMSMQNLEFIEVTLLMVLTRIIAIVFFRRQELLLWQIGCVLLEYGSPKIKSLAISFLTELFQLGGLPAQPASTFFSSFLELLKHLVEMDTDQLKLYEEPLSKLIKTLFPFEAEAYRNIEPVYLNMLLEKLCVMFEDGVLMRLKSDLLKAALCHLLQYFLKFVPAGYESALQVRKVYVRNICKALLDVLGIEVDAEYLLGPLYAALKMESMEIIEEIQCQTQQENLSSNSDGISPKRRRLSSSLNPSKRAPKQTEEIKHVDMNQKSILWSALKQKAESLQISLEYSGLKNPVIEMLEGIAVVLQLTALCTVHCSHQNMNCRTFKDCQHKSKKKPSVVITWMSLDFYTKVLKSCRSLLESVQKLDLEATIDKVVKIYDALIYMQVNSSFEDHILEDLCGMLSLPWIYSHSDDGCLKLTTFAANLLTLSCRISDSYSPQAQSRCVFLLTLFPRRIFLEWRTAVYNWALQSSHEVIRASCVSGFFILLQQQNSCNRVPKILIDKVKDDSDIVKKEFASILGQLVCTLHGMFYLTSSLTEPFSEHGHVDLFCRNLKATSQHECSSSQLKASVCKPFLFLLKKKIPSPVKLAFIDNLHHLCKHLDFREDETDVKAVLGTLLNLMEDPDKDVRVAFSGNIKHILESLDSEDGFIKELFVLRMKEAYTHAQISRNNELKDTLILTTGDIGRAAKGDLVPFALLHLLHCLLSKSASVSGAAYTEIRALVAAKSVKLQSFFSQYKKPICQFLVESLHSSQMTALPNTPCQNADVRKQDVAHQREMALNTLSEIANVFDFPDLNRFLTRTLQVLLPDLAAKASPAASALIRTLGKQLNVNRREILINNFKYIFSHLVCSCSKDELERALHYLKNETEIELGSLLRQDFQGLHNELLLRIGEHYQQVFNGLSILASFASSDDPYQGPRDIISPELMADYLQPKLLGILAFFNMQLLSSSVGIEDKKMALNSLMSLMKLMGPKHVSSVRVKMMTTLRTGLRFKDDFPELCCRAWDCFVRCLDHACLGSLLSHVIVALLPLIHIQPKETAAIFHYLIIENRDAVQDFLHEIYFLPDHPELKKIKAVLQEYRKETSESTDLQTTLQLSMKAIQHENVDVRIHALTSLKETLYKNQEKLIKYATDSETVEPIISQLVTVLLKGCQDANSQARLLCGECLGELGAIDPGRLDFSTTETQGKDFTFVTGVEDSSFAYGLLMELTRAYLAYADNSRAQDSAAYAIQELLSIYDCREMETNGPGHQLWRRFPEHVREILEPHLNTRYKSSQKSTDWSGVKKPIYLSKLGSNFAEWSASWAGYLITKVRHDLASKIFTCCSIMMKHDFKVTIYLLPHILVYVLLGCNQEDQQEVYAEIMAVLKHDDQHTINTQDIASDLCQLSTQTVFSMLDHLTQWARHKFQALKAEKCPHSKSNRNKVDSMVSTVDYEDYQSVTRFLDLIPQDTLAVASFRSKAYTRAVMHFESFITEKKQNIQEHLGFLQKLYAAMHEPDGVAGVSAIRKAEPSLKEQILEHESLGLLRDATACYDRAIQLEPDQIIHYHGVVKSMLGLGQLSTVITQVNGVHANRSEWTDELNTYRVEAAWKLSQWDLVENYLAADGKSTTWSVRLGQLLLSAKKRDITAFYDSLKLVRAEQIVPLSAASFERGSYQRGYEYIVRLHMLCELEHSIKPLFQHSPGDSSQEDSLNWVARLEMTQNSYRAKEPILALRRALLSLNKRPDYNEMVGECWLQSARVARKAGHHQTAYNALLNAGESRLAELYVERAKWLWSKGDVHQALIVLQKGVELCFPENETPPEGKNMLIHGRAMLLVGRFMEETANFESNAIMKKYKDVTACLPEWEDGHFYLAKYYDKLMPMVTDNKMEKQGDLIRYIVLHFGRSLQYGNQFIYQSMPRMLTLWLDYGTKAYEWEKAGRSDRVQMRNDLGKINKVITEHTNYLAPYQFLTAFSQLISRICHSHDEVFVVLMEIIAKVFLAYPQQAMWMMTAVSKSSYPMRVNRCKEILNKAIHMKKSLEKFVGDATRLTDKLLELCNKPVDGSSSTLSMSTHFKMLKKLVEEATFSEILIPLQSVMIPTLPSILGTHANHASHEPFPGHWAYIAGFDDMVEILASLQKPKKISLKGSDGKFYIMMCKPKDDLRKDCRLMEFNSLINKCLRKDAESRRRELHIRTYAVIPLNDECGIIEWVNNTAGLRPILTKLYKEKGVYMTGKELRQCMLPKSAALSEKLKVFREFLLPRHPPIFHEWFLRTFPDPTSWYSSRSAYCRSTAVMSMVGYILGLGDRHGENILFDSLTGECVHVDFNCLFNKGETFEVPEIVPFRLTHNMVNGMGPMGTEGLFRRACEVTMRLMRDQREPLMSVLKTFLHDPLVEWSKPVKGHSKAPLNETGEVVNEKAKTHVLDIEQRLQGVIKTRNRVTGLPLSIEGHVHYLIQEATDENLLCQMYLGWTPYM

Turning to `Cc1nn(-c2cncc(C#N)c2)c(C)c1-c1cc(N2CCOC[C@H]2C)nc2c(-c3ccn[nH]3)cnn12` [US20230271968, Compound A11], the IC50 amounted to 9 nM.

Values taken from BindingDB's records for patent US20230271968 (Beijing Tide Pharmaceutical, 2023).
